# US8580820B2, “Tubulysin compounds with high cytotoxicity, pharmaceutical compositions thereof, and method of use thereof” (Kemtech S.r.L., priority 2009, dated 2013)
# Experiments:
# [1] = tested on: cellular lines HL60, A 2780, C6; assay: Cytotoxicity test in vitro on cellular lines (comparative examples 16.10, 17.10); format: cell-based, human; rat
# Description: (§1) The cytotoxic effects of the compounds of formula (A) were evaluated by treating […] with different concentrations of the compounds under screening. The following cell lines were used: A2780 (human ovarian carcinoma), HL60 (human leukaemia), C6 (rat glioma) and HT29 (adenocarcinoma of human colon). The cell lines have been obtained by ECACC (European Collection of Cell Cultures).
# The cell lines have been cultured in 75 cm^2 flasks with culture medium DMEM (Dulbecco's Medium Eagle Modified, Sigma Aldrich®) and the following additives (Sigma Aldrich®): L-Glutamine 2 mM, 10% Fetal Bovine Serum, Penicillin/-Streptomycin, Fungizone, Gentamycin. The incubation was carried out in modified atmosphere incubators (37° C., 5% CO2). When cell confluence was obtained, the cells were propagated by dilution in a ratio 1:3/1:5 by using a Trypsin-EDTA 1× solution and then transferred into 96 well plates in the suitable culture medium. […]
# (§2) In order to control the cellular viability, the ATPlite test (Perkin Elmer) was used. […] For the reading the Victor 3 instrument by Perkin Elmer was used.
# The compound obtained in example 16.9 has been evaluated with the cytotoxicity test in vitro on cellular lines. […]
# The cytotoxicity of the compound of the example 17.9 comparative was evaluated as described in example 16.10 comparative for the compound 16.9.
# [2] = tested on: A2780 (human ovarian carcinoma); assay: Cytotoxicity in vitro, cellular viability (ATPlite Perkin Elmer test), A2780; format: cell-based; design: cellular viability (ATPlite Perkin Elmer test): unit not given here; settings: 72 hours
# Description: as §1
# (§3) The cell lines have been cultured in 75 cm^2 flasks with culture medium DMEM (Dulbecco's Medium Eagle Modified, Sigma Aldrich®) and the following additives (Sigma Aldrich®): L-Glutamine 2 mM, 10% Fetal Bovine Serum, Penicillin/-Streptomycin, Fungizone, Gentamycin. The incubation was carried out in modified atmosphere incubators (37° C., 5% CO2). When cell confluence was obtained, the cells were propagated by dilution in a ratio 1:3/1:5 by using a Trypsin-EDTA 1× solution and then transferred into 96 well plates in the suitable culture medium. The cells were then treated for 72 hours with different concentrations (10^−13+10^−4 M) of the compounds under examination. For the tests in vitro the compounds obtained in the examples 1.15 and 6.8 were solubilised in dimethylsulphoxide (DMSO). All the tests were performed with a constant DMSO concentration equal to 0.1% by weight.
# (§4) In order to control the cellular viability, the ATPlite test (Perkin Elmer) was used. The APTlite test evaluates the ATP production. APT is a marker of cellular viability as it is present in all the metabolically active cells. The test’ is based on the chemiluminiscence due to the ATP reaction with the luciferase and the D-luciferin. The emitted light is proportional to the ATP concentration. For the reading the Victor 3 instrument by Perkin Elmer was used.
# (§5) Four readings were taken for each sample solution. The results (average values) for the cytotoxicity of the compounds of formula (A) obtained in examples 1.15 and 6.8 are reported respectively in Tables 1 and 2. It is noted that the GI50 values determined by means of the cellular viability values are lower than 2 nM. This confirms the high cytotoxicity of the compound of formula (A).
# [3] = tested on: HT29 (adenocarcinoma of human colon); assay: Cytotoxicity in vitro, cellular viability (ATPlite Perkin Elmer test), HT29; format: cell-based; design: cellular viability (ATPlite Perkin Elmer test): unit not given here; settings: for cellular viability (ATPlite Perkin Elmer test): 72 hours
# Description: as §1, §3, §4, §5
# [4] = tested on: A2780, HL60, C6 and HT29 cell lines; assay: Cytotoxicity in vitro, summary over the cell lines of example 14; format: cell-based, human; rat; settings: all cell lines of Tables 1 and 2; read-out: GI50 values determined by means of the cellular viability values
# Description: as §1
# as §3, with “All the tests were performed with a constant DMSO concentration equal to 0.1% by weight.” left out
# as §2
# Four readings were taken for each sample solution. […]
# [5] = tested on: HL60 (human leukaemia); assay: Cytotoxicity in vitro, cellular viability (ATPlite Perkin Elmer test), HL60; format: cell-based; design: cellular viability (ATPlite Perkin Elmer test): unit not given here; settings: HL60, 72 hours
# Description: as §1, §3, §4, §5
compound,measurement,setting,value
"CC[C@H](C)[C@H](NC(=O)[C@H]1CCCCN1C)C(=O)N[C@H](C[C@@H](OC(C)=O)c1nc(C(=O)N[C@@H](Cc2ccccc2)C[C@H](C)C(=O)O)cs1)C1CCCCC1 [Example 17.9, (2S,4R)-4-(2-((1R,3R)-1-acetoxy-3-cyclohexyl-3-((2S,3S)-3-methyl-2-((R)-1-methyl-piperidin-2-carboxamido)pentanamido)propyl)thiazol-4-carboxamido)-2-methyl-5-phenyl pentanoic acid]",GI50,"[1]; Homo sapiens, HL60/A, evaluated as in example 16.10, cellular line not stated",10 µM
same,times higher than the GI50 of the compounds of the invention,[1]; ratio of GI50 values,"10,000 times"
"CCC(C)[C@H](NC(=O)[C@H]1CCCCN1C)C(=O)N(Cc1ccccc1)[C@H](C[C@@H](OC(C)=O)c1nc(C(=O)N[C@@H](Cc2ccccc2)C[C@H](C)C(=O)O)cs1)C(C)C (stereo in doubt) [Example 1.15, (2S,4R)-4-(2-((1R,3R)-1-acetoxy-3-((2S,3R)—N-benzyl-3-methyl-2-(1-methylpiperidin-2-carboxamido)pentanamido)-4-methylpentyl)thiazol-4-carboxamido)-2-methyl-5-phenyl-pentanoic acid]",GI50,"[2]; Homo sapiens, value is GI50 multiplied by 10^9, Table 1, read-out: GI50 × 10^9",1.8 pM
same,cellular viability (ATPlite Perkin Elmer test),[2]; compound 10^−4 mole/litre,3.10
same,cellular viability (ATPlite Perkin Elmer test),[2]; compound 10^−5 mole/litre,7.23
same,cellular viability (ATPlite Perkin Elmer test),[2]; compound 10^−6 mole/litre,9.60
same,cellular viability (ATPlite Perkin Elmer test),[2]; compound 10^−7 mole/litre,10.60
same,cellular viability (ATPlite Perkin Elmer test),[2]; compound 10^−8 mole/litre,11.78
same,cellular viability (ATPlite Perkin Elmer test),[2]; compound 10^−9 mole/litre,25.08
same,cellular viability (ATPlite Perkin Elmer test),[2]; compound 10^−10 mole/litre,25.04
same,cellular viability (ATPlite Perkin Elmer test),[2]; compound 10^−11 mole/litre,32.71
same,cellular viability (ATPlite Perkin Elmer test),[2]; compound 10^−12 mole/litre,65.66
same,cellular viability (ATPlite Perkin Elmer test),[2]; compound 10^−13 mole/litre,100.1
same,GI50,"[3]; Homo sapiens, HT-29, 72 hours, value is GI50 multiplied by 10^9, Table 1",0.312 nM
same,cellular viability (ATPlite Perkin Elmer test),[3]; compound 10^−4 mole/litre,15.14
same,cellular viability (ATPlite Perkin Elmer test),[3]; compound 10^−5 mole/litre,14.55
same,cellular viability (ATPlite Perkin Elmer test),[3]; compound 10^−6 mole/litre,15.43
same,cellular viability (ATPlite Perkin Elmer test),[3]; compound 10^−7 mole/litre,16.85
same,cellular viability (ATPlite Perkin Elmer test),[3]; compound 10^−8 mole/litre,17.55
same,cellular viability (ATPlite Perkin Elmer test),[3]; compound 10^−9 mole/litre,20.77
same,cellular viability (ATPlite Perkin Elmer test),[3]; compound 10^−10 mole/litre,99.08
same,cellular viability (ATPlite Perkin Elmer test),[3]; compound 10^−11 mole/litre,102.2
same,cellular viability (ATPlite Perkin Elmer test),[3]; compound 10^−12 mole/litre,103.2
same,cellular viability (ATPlite Perkin Elmer test),[3]; compound 10^−13 mole/litre,104.5
same,GI50,[4],< 2 nM
same,GI50 × 10^9,"[5]; value is GI50 multiplied by 10^9, Table 1",0.0004 moles/litre
same,cellular viability (ATPlite Perkin Elmer test),[5]; compound 10^−4 mole/litre,0.47
same,cellular viability (ATPlite Perkin Elmer test),[5]; compound 10^−5 mole/litre,2.57
same,cellular viability (ATPlite Perkin Elmer test),[5]; compound 10^−6 mole/litre,2.99
same,cellular viability (ATPlite Perkin Elmer test),[5]; compound 10^−7 mole/litre,2.69
same,cellular viability (ATPlite Perkin Elmer test),[5]; compound 10^−8 mole/litre,2.94
same,cellular viability (ATPlite Perkin Elmer test),[5]; compound 10^−9 mole/litre,3.66
same,cellular viability (ATPlite Perkin Elmer test),[5]; compound 10^−10 mole/litre,8.29
same,cellular viability (ATPlite Perkin Elmer test),[5]; compound 10^−11 mole/litre,22.65
same,cellular viability (ATPlite Perkin Elmer test),[5]; compound 10^−12 mole/litre,34.26
same,cellular viability (ATPlite Perkin Elmer test),[5]; compound 10^−13 mole/litre,98.98
